Measured values taken from the NIST ThermoML archive (doi:10.1021/je700618y).

Tests used:
[1] = refractive index (Na D-line) (dimensionless); conditions: 298.15 K; 101.33 kPa; Liquid; Standard Abbe refractometry
[2] = 298.15 K, 101.33 kPa, Liquid; for viscosity: Capillary tube (Ostwald / Ubbelohde) method
[3] = xn = mol fraction of the nth substance listed; conditions: 298.15 K, 101 kPa, Liquid; for viscosity: Capillary tube (Ostwald / Ubbelohde) method; for mass density: Vibrating tube method
[4] = refractive index (Na D-line) (dimensionless); xn = mol fraction of the nth substance listed; conditions: 298.15 K, 101 kPa, Liquid, Standard Abbe refractometry

CCO [ethanol]
Conditions	mass density [kg/m3]	refractive index	viscosity [mPa·s]
[1]	–	1.35937	–
[2]	785.12	–	1.076

CCO [ethanol] + O
Conditions	mass density, [3] [kg/m3]	refractive index, [4]	viscosity, [3] [mPa·s]
x2 = 0.048	791.06	1.36013	1.158
x2 = 0.1116	799.08	1.361	1.261
x2 = 0.1599	805.32	1.3615	1.326
x2 = 0.1761	807.44	1.36168	1.36
x2 = 0.2668	820.06	1.36247	1.496
x2 = 0.301	825.06	1.36266	1.556
x2 = 0.3994	840.69	1.36295	1.726
x2 = 0.497	858.26	1.3628	1.932
x2 = 0.6122	882.42	1.36176	2.161
x2 = 0.7116	907.85	1.35974	2.385
x2 = 0.7774	926.61	1.35727	2.353
x2 = 0.8145	937.62	1.3554	2.366
x2 = 0.8529	949.42	1.35243	2.193
x2 = 0.8967	960.95	1.34783	1.92
x2 = 0.9481	976.77	1.34063	1.432

COS(=O)(=O)[O-].C[N+](CCO)(CCO)CCO [tris(2-hydroxyethyl) methylammonium methylsulfate]
Conditions	refractive index	viscosity [mPa·s]
[1]	1.48489	–
[2]	–	1236

Conditions	mass density [kg/m3]
[2], Vibrating tube method	1344.13

COS(=O)(=O)[O-].C[N+](CCO)(CCO)CCO [tris(2-hydroxyethyl) methylammonium methylsulfate] + CCO
Conditions	mass density, [3] [kg/m3]	refractive index, [4]	viscosity, [3] [mPa·s]
x1 = 0.0482	876.74	1.3818	2.26
x1 = 0.0981	951.17	1.39899	4.523
x1 = 0.1509	1014.1	1.41373	8.351
x1 = 0.1994	1061.07	1.42476	13.32
x1 = 0.242	1097.16	1.43322	19.62
x1 = 0.2922	1132.75	1.44083	29.16
x1 = 0.3882	1187.8	1.45307	58.72
x1 = 0.4841	1229.34	1.46222	110.8
x1 = 0.5923	1264.46	1.4695	204.3
x1 = 0.6288	1273.93	1.47153	247.6
x1 = 0.6881	1288.67	1.47511	333.6
x1 = 0.7379	1299.19	1.47666	430.4
x1 = 0.7878	1309.46	1.47867	518.1
x1 = 0.8379	1318.78	1.48018	657.1
x1 = 0.8738	1324.39	1.48134	775.7
x1 = 0.9203	1331.87	1.48278	902.1

COS(=O)(=O)[O-].C[N+](CCO)(CCO)CCO [tris(2-hydroxyethyl) methylammonium methylsulfate] + O
Conditions	mass density, [3] [kg/m3]	refractive index, [4]	viscosity, [3] [mPa·s]
x1 = 0.0478	1129.13	1.38887	2.341
x1 = 0.0967	1195.06	1.41769	5.054
x1 = 0.1939	1258.48	1.44581	16.79
x1 = 0.2421	1275.98	1.4539	27
x1 = 0.2894	1288.49	1.45949	41.22
x1 = 0.3872	1306.02	1.46758	86.07
x1 = 0.4858	1317.49	1.47335	159.5
x1 = 0.6064	1327.14	1.47587	290.1
x1 = 0.6698	1330.96	1.47878	390.7
x1 = 0.7822	1336.36	1.4813	569
x1 = 0.867	1339.64	1.4827	756.2
x1 = 0.9398	1342.07	1.48341	960.7
